Laboratory results: the NIST ThermoML archive (doi:10.1021/je800945e)
± gives the expanded uncertainty stated by the source.

Settings: Crystal; visual observation

**Q.** For `Nc1cccnc1` [β-aminopyridine], which Normal melting temperature is on record?
**A.** 64.50 ± 0.5 °C
